Measured values from ChEMBL document CHEMBL6083254, “Optimization of B-Ring-Functionalized Antimalarial Tambjamines and Prodiginines” (J Med Chem, 2024).

How the values were obtained:
Plasmodium falciparum [1] = assay: microbe, parasite or virus in culture; conditions: D6, 72 h
Plasmodium falciparum [2] = assay: microbe, parasite or virus in culture; conditions: Dd2, 72 h
Plasmodium falciparum [3] = assay: microbe, parasite or virus in culture; conditions: Tm90-C2B, 72 h
HepG2 = assay: Cytotoxicity against human HepG2 cells assessed as cell viability incubated for 72 hrs by MTT assay; format: toxicity, cell-based; conditions: hepg2
Plasmodium yoelii = assay: Antiplasmodial activity against asexual erythrocytic stage of Plasmodium yoelii infected in female CFI mouse model assessed as reduction in parasitemia at 25 mg/kg, po administered once daily for 4 days and measured on day 5 by Giemsa staining based microscopic analysis relative to control; format: functional; set-up: scale not given: the % may be the effect or the level left; conditions: time 5 day
in vitro = conditions: human
Description: Selectivity index, ratio of IC50 for cytotoxicity against human HepG2 cells assessed as cell viability to IC50 for antiplasmodial activity against asexual erythrocytic stage of Plasmodium falciparum D6 assessed as inhibition of parasitic growth incubated

[4] = Metabolic stability in human liver microsomes assessed as half life measured upto 60 mins LC-MS analysis
[5] = Metabolic stability in mouse liver microsomes assessed as half life measured upto 60 mins LC-MS analysis
[6] = Metabolic stability in human liver microsomes assessed as intrinsic clearance measured upto 60 mins LC-MS analysis
[7] = Metabolic stability in mouse liver microsomes assessed as intrinsic clearance measured upto 60 mins LC-MS analysis
[8] = Aqueous solubility of compound in PBS buffer at pH 7.4 incubated for 90 mins by UV-vis spectroscopic analysis; conditions: pH 7.4, 1.5 h

Row | SMILES | IC50 (Plasmodium falciparum [1]) | IC50 (Plasmodium falciparum [2]) | IC50 (Plasmodium falciparum [3]) | IC50 (HepG2) | Activity (Plasmodium yoelii) | selectivity ratio (in vitro) | half-life at 1 h [4] | half-life at 1 h [5] | microsomal CLint at 1 h [6] | microsomal CLint at 1 h [7] | solubility [8]
1 | CCCCCCCCCCCCN/C=C1\N=C(c2ccc[nH]2)C=C1OCc1ccc(Cl)cc1 | 0.41 µM | 0.34 µM | 0.305 µM |  |  |  |  |  |  |  | 
2 | CCCCCCCCCCCCN/C=C1\N=C(c2ccc[nH]2)C=C1Oc1ccccc1 | > 2.5 µM | > 2.5 µM | > 2.5 µM |  |  |  |  |  |  |  | 
3 | CC(C)CN/C=C1\N=C(c2ccc[nH]2)C=C1OC(C)C.Cl |  | 0.0377 µM | 0.0342 µM | 7.42 µM | 0% | 201 |  |  |  |  | 
4 | Cl.Clc1ccc(OC2=CC(c3ccc[nH]3)=N/C2=C\NC23CC4CC(CC(C4)C2)C3)cc1 | 0.0528 µM | 0.022 µM | 0.0283 µM |  | 58% | 275 | > 60 min | > 60 min | 6.72 µL/min/mg | 2.1 µL/min/mg | 
5 | CCCCCCCCCCCCN/C=C1\N=C(c2ccc[nH]2)C=C1OCc1ccccc1.Cl |  | 0.0602 µM | 0.0546 µM | 7.74 µM | 0% | 144 |  |  |  |  | 
6 | CCCCCCCCCCCCN/C=C1\N=C(c2ccc[nH]2)C=C1OCCC.Cl | 0.0328 µM | 0.0442 µM | 0.039 µM | 4.44 µM | 16.4% | 135 |  |  |  |  | 
7 | CCCCCCCCCCCCN/C=C1\N=C(c2ccc[nH]2)C=C1OCc1ccc(OC(F)(F)F)cc1 | 0.413 µM | 0.35 µM | 0.32 µM |  |  |  |  |  |  |  | 
8 | Cl.FC(F)(F)Oc1ccc(COC2=CC(c3ccc[nH]3)=N/C2=C\NC23CC4CC(CC(C4)C2)C3)cc1 | 0.00201 µM | 0.00182 µM | 0.00243 µM | 3.74 µM | 81.8% | 1860 | 45.4 min | 56.4 min | 30.6 µL/min/mg | 24.6 µL/min/mg | < 3.125 µM
9 | FC(F)(F)Oc1ccc(OC2=CC(c3ccc[nH]3)=N/C2=C\NC2CCCCCC2)cc1 | 1.19 µM | > 2.5 µM | 1.69 µM |  |  |  |  |  |  |  | 
10 | CCCCCCCCCCCCN/C=C1\N=C(c2ccc[nH]2)C=C1OC | 0.0659 µM | 0.0699 µM | 0.0969 µM | 6.1 µM |  | 93 |  |  |  |  | 
11 | COC1=CC(c2ccc[nH]2)=N/C1=C\NCC(C)C | 0.112 µM | 0.0928 µM | 0.103 µM | 19.1 µM | 18.2% | 170 |  |  |  |  | 
12 | Cl.Clc1ccc(COC2=CC(c3ccc[nH]3)=N/C2=C\NC23CC4CC(CC(C4)C2)C3)cc1 | 0.0141 µM | 0.00856 µM | 0.0114 µM | 2.25 µM | 40% | 160 |  |  |  |  | 
13 | Cl.FC(F)(F)Oc1ccc(COC2=CC(c3ccc[nH]3)=N/C2=C\NC2CCCCCC2)cc1 | 0.0495 µM | 0.0387 µM | 0.0263 µM | 5.72 µM | 72.3% | 116 |  |  |  |  | 
14 | CC(C)CN/C=C1\N=C(c2ccc[nH]2)C=C1Oc1ccc(Cl)cc1 | > 2.5 µM | > 2.5 µM | > 2.5 µM |  |  |  |  |  |  |  | 
15 | CCCCCCCCCCCCN/C=C1\N=C(c2ccc[nH]2)C=C1Oc1ccc(Cl)cc1 | > 2.5 µM | > 2.5 µM | > 2.5 µM |  |  |  |  |  |  |  | 
16 | CCOC1=CC(c2ccc[nH]2)=N/C1=C\NC1CCCCCC1.Cl | 0.00733 µM | 0.00527 µM | 0.00493 µM | 2.26 µM | 8.5% |  | 35.7 min | > 60 min | 38.8 µL/min/mg | 14.4 µL/min/mg | 178 µM
17 | CCCCCCCCCCCCN/C=C1\N=C(c2ccc[nH]2)C=C1OCC.Cl | 0.0111 µM | 0.00968 µM | 0.0127 µM | 4.35 µM | 0% | 391 |  |  |  |  | 
18 | CCOC1=CC(c2ccc[nH]2)=N/C1=C\NCC(C)C.Cl | 0.03 µM | 0.0467 µM | 0.0416 µM | 4.62 µM | 0% | 154 |  |  |  |  | 

Row | SMILES | IC50 (Plasmodium falciparum [1]) | IC50 (Plasmodium falciparum [2]) | IC50 (Plasmodium falciparum [3]) | IC50 (HepG2) | Activity (Plasmodium yoelii) | selectivity ratio (in vitro) | half-life at 1 h [4] | half-life at 1 h [5] | microsomal CLint at 1 h [6] | microsomal CLint at 1 h [7] | solubility [8]
19 | CCCCCCCCCCCc1ccc(/C=C2\N=C(c3ccc[nH]3)C=C2OCc2ccc(OC(F)(F)F)cc2)[nH]1 | > 2.5 µM | > 2.5 µM | > 2.5 µM |  |  |  |  |  |  |  | 
20 | CCCCCCCCCCCc1ccc(/C=C2\N=C(c3ccc[nH]3)C=C2Oc2ccc(Cl)cc2)[nH]1 | 1.32 µM | 1.4 µM | 2.3 µM |  |  |  |  |  |  |  | 
21 | CCCCCCCCCCCCN/C=C1\N=C(c2ccc[nH]2)C=C1OC(C)C.Cl | 0.0297 µM | 0.0375 µM | 0.0372 µM | 3.07 µM | 0% | 103 |  |  |  |  | 
22 | CC(C)CN/C=C1\N=C(c2ccc[nH]2)C=C1Oc1ccccc1 |  | 1.69 µM | 0.884 µM |  |  |  |  |  |  |  | 
23 | CCCCCCCCCCCCN/C=C1\N=C(c2ccc[nH]2)C=C1Oc1ccc(OC(F)(F)F)cc1 | > 2.5 µM | > 2.5 µM | > 2.5 µM |  |  |  |  |  |  |  | 
24 | CCCCCCCCCCCc1ccc(/C=C2\N=C(c3ccc[nH]3)C=C2OCc2ccc(Cl)cc2)[nH]1 |  | 0.939 µM | 1.85 µM |  |  |  |  |  |  |  | 
25 | CCCOC1=CC(c2ccc[nH]2)=N/C1=C\NCC(C)C.Cl | 0.0209 µM | 0.0155 µM | 0.0231 µM | 7.63 µM | 75.4% | 365 |  |  |  |  | 
26 | C1=C(Oc2ccccc2)/C(=C/NC2CCCCCC2)N=C1c1ccc[nH]1 | 0.354 µM | 0.317 µM | 0.276 µM |  |  |  |  |  |  |  | 
27 | CC(C)CN/C=C1\N=C(c2ccc[nH]2)C=C1OCc1ccc(Cl)cc1 | 0.0897 µM | 0.0623 µM | 0.0688 µM | 6.96 µM |  | 78 |  |  |  |  | 
28 | CC(C)CN/C=C1\N=C(c2ccc[nH]2)C=C1Oc1ccc(OC(F)(F)F)cc1 | > 2.5 µM | > 2.5 µM | > 2.5 µM |  |  |  |  |  |  |  | 
29 | CCCCCCCCCCCc1ccc(/C=C2\N=C(c3ccc[nH]3)C=C2Oc2ccc(OC(F)(F)F)cc2)[nH]1 | > 2.5 µM | > 2.5 µM | > 2.5 µM |  |  |  |  |  |  |  | 
30 | CC(C)CN/C=C1\N=C(c2ccc[nH]2)C=C1OCc1ccccc1.Cl | 0.0487 µM | 0.058 µM | 0.0521 µM | 8.86 µM | 0% | 182 |  |  |  |  | 
31 | CC(C)CN/C=C1\N=C(c2ccc[nH]2)C=C1OCc1ccc(OC(F)(F)F)cc1 |  | 0.205 µM | 0.335 µM |  |  |  |  |  |  |  | 
32 | Cl.FC(F)(F)Oc1ccc(OC2=CC(c3ccc[nH]3)=N/C2=C\NC23CC4CC(CC(C4)C2)C3)cc1 | 0.193 µM | 0.242 µM | 0.204 µM | 28.2 µM | 83% | 146 |  |  |  |  | 
33 | Clc1ccc(COC2=CC(c3ccc[nH]3)=N/C2=C\NC2CCCCCC2)cc1 | 0.121 µM | 0.0799 µM | 0.0978 µM | 8.48 µM |  | 70 |  |  |  |  | 
34 | Clc1ccc(OC2=CC(c3ccc[nH]3)=N/C2=C\NC2CCCCCC2)cc1 | 0.517 µM | 0.681 µM | 0.561 µM |  |  |  |  |  |  |  | 
35 | CCCOC1=CC(c2ccc[nH]2)=N/C1=C\NC1CCCCCC1.Cl |  | 0.000632 µM | 0.000348 µM | 2.89 µM | 75.5% | 7960 | 35.2 min | 53.2 min | 39.4 µL/min/mg | 26 µL/min/mg | 77.7 µM
36 | OC(c1cc(C(F)(F)F)nc2c(C(F)(F)F)cccc12)C1CCCCN1 (stereo unspecified) [MEFLOQUINE] |  |  |  | 13.7 µM |  |  |  |  |  |  | 
